Results: ChEMBL document CHEMBL1138364 (J Med Chem, 2007)

Experiments:
[1] = Cytotoxicity against HEL cells assessed as alteration in cell morphology; format: cell-based; settings: human
[2] = Cytotoxicity against HEL cells; format: cell-based; settings: human
[3] = Inhibition of VZV-TK catalyzed dThd phosphorylation; set-up: species or system Human alphaherpesvirus 3
Human alphaherpesvirus 3 [4] = experiment: Antiviral activity against TK+ VZV OKA in HEL cells after 5 days; format: functional, organism-based; settings: Human alphaherpesvirus 3, OKA, 120 h
Human alphaherpesvirus 3 [5] = experiment: Antiviral activity against TK+ VZV YS in HEL cells after 5 days; format: functional, organism-based; settings: Human alphaherpesvirus 3, YS, 120 h
Human alphaherpesvirus 3 [6] = experiment: Antiviral activity against TK- VZV 07 in HEL cells after 5 days; format: functional, organism-based; settings: Human alphaherpesvirus 3, 07, HEL, 120 h
Human alphaherpesvirus 3 [7] = experiment: Antiviral activity against TK- VZV YS in HEL cells after 5 days; format: functional, organism-based; settings: Human alphaherpesvirus 3, YS, 120 h

Structure (SMILES) | MCC [1] [µM] | CC50 [2] [µM] | IC50 [3] [µM] | EC50 (Human alphaherpesvirus 3 [4]) [µM] | EC50 (Human alphaherpesvirus 3 [5]) [µM] | EC50 (Human alphaherpesvirus 3 [6]) [µM] | EC50 (Human alphaherpesvirus 3 [7]) [µM]
CCCCCc1ccc(-c2cc3cn([C@H]4C[C@H](O)[C@@H](CO)O4)c(=O)nc3o2)cc1 [CF1743] | > 20 |  |  |  |  |  | 
Nc1nc2c(ncn2COCCO)c(=O)[nH]1 [ACYCLOVIR] | > 200 | > 200 |  |  |  |  | 
CCCCCc1ccc(-c2cc3cn([C@@H]4C[C@H](CO)[C@@H](O)C4)c(=O)nc3o2)cc1 | > 50 | > 50 | 44 | 0.49 | 0.28 | > 50 | 
O=c1[nH]c(=O)n([C@H]2C[C@H](O)[C@@H](CO)O2)cc1/C=C/Br [BRIVUDINE] | > 200 | > 200 | 1.3 | 0.005 | 0.005 | > 200 | > 200
